According to patent US6376666B1 (Nauchno-Issledovatelsky Institut Farmakologii Rossiiskoi …, priority 1994, dated 2002):
Values joined by “and” are separate entries in the source; they are usually repeats but may differ in a detail not shown here. Equal values may be shown once. “Also recorded” adds a separate entry of the source.

Columns and labels:
[1] = system: adrenaline arrhythmia; assay: adrenaline arrhythmia in concious rabbits; details: given 2 min before arrhythmogenic dose of adrenaline
Experimental: Adrenaline arrhythmia. The 0,1% solution of adrenaline hydrochloride was injected to the marginal ear's vein of rabbit weighing 2,5-3,0 kg at dose ranging 120-150 mcg/kg which induced cardiac rhythm disturbances of two types.
The tested compound was injected in 3 ml of distilled water 30 min after determination of arrhythmogenic dose of adrenaline and the ECG was recorded in 2nd standard lead. 2 min after administration of tested compound the arrhythmogenic dose of adrenaline was injected.

[2] = system: aconitine arrhythmia; assay: animal or person; format: in vivo, rats; details: Rattus norvegicus, iv, read-out: Aconitine arrhythmia ED50
Experimental: Aconitine arrhythmia. The aconitine arrhythmia was induced in concious rats weighing 180-200 g by the injection in tail vein of the aconitine sulfate solution at dose range of […]. […] The tested compounds were administered i.v. 3 min prior aconitine injection. The ED50 value was calculated according to Litchfield's method.

[3] = system: ventricular disturbances of heart rhythm; assay: arrhythmia in concious dogs according to Harris; format: in vivo; details: for % of the ectopic contractions / heart rate: concious dogs according to Harris, compound XX 1.0 mg/kg i.v., individual dogs
Experimental: The arrhythmia in concious dogs according to Harris. The experiments were conducted in mongrel dogs of either sex weighing 9-14 kg. Under anesthesia (40 mg/kg of nembutal i.v.) and artificial respiration the two-step occlusion of the left anterior descending coronary artery was performed. The constant ECG disturbances of the heart rhythm were recorded after 24 hours. […] T-Student' test was used for statistical calculation.

[4] = system: calcium chloride arrhythmia; assay: calcium chloride arrhythmia in concious rats; format: in vivo; details: concious rats
Experimental: In these experiments the outbred concious rats 180-200 g of weight were injected with 10% solution of calcium chloride in tail vein at dose range of 250-300 mg/kg.

[5] = system: C57B1/6 mice; assay: open-field test, C57B1/6 mice (active type of emotional-stress reaction); format: in vivo; parameters: key to Total activity: sum of all locomotor activity counts (crossings + rearings) in 3 min; details: for Central activity (crossings) / Number of defecations / Peripheral activity (crossings) / Total activity / Vertical activity (rearings): M ± mx
How it was run: (§1)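 Male mice, 20-22 g, dosed i.p. in water 30 min before a 3-min open-field test after 1 min in darkness; peripheral, central, rearing and total activity plus defecations recorded; Student t-test. Anxiolysis read as Balb/c activation, sedation as C57B1/6 inhibition.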

[6] = system: Balb/c mice; assay: open-field test, Balb/c mice (passive type of emotional-stress reaction); format: in vivo; parameters: key to Total activity: sum of all locomotor activity counts (crossings + rearings) in 3 min; details: for Central activity (crossings) / Peripheral activity (crossings) / Total activity / Number of defecations / Vertical activity (rearings): M ± mx
How it was run: as §1

[7] = 10 min after compound injection
[8] = 15 min after compound injection
[9] = 20 min after compound injection
[10] = 30 min after compound injection
[11] = 40 min after compound injection
[12] = 50 min after compound injection

For `CN(C)CCSc1nc2ccccc2n1CCc1ccccc1` [Compound XX, 1-(β-Phenylethyl)-2-[2-(dimethylamino)ethylthio]-benzimidazole], the “Adrenaline arrhythmia. Range of active doses” value [1] was 0.2−0.7 mg/kg, the ED50 [2] was less than 0.5 mg/kg and the “% of the ectopic contractions” value ([3]; 3 min after compound injection) was 64% and 30% and 72% and 80%. For the same compound, the heart rate ([3]; 3 min after compound injection) was 93 beats/min and 172 beats/min and 145 beats/min and 103 beats/min, the “% of the ectopic contractions” value ([3]; 5 min after compound injection) was 52% and 20% and 63% and 82% and the heart rate ([3]; 5 min after compound injection) was 89 beats/min and 167 beats/min and 138 beats/min and 98 beats/min. For the same compound, the “% of the ectopic contractions” value [3, 7] was 50% and 18% and 60% and 81%, the heart rate [3, 7] was 102 beats/min and 163 beats/min and 129 beats/min and 75 beats/min and the “% of the ectopic contractions” value [3, 8] was 51% and 0% and 58% and 91%. The heart rate [3, 8] was 88 beats/min and 159 beats/min and 125 beats/min and 100 beats/min, the “% of the ectopic contractions” value [3, 9] was 56% and 0% and 66% and 92% and the heart rate [3, 9] was 74 beats/min and 155 beats/min and 132 beats/min and 78 beats/min. The “% of the ectopic contractions” value [3, 10] was 62% and 10% and 74% and 91%, the heart rate [3, 10] was 94 beats/min and 168 beats/min and 135 beats/min and 117 beats/min and the “% of the ectopic contractions” value [3, 11] was 66% and 8% and 79% and 97%. For the same compound, the heart rate [3, 11] was 105 beats/min and 185 beats/min and 148 beats/min and 106 beats/min, the “% of the ectopic contractions” value [3, 12] was 63% and 10% and 81% and 94% and the heart rate [3, 12] was 128 beats/min and 198 beats/min and 159 beats/min and 109 beats/min. The “antiarrhythmic effect, in words” value ([3]; concious dogs with ventricular disturbances of heart rhythm, i.v.) was “pronounced antiarrhythmic effect”, the “effect on heart rate, in words” value ([3]; concious dogs, i.v.) was “pronounced bradycardia” and the “tolerability / side effects, in words” value ([3]; concious dogs, i.v.) was “well tolerated by the animals; also recorded: no side effects”. For the same compound, the ED50 ([4]; Rattus norvegicus, iv, given 2 min prior calcium chloride 250-300 mg/kg i.v., read-out: Calcium chloride arrhythmia ED50 (mean effective dose)) was 2.03 mg/kg, the “Calcium chloride arrhythmia ED50 (mean effective dose)” value ([4]; given 2 min prior calcium chloride 250-300 mg/kg i.v.) was 2.0 mg/kg and the “effect on death from lethal ventricular fibrillation, in words” value ([4]; injected 2 min prior calcium chloride) was “prevents the death of animals”.

With `CCOc1ccc2nc(SCCN3CCOCC3)[nH]c2c1` [XII, 2-[2-(Morpholino)ethylthio]-5-ethoxybenzimidazole] the “Central activity (crossings)” value ([5]; 0.1 mg/kg i.p.) was 18.3 ± 1.9, the Number of defecations ([5]; 0.1 mg/kg i.p.) was 1.3 ± 0.3 and the “Peripheral activity (crossings)” value ([5]; 0.1 mg/kg i.p.) was 92.9 ± 5.4. For the same compound, the Total activity ([5]; 0.1 mg/kg i.p.) was 123.6 ± 8.4, the “Vertical activity (rearings)” value ([5]; 0.1 mg/kg i.p.) was 12.5 ± 1.1 and the “Central activity (crossings)” value ([5]; 1.0 mg/kg i.p.) was 20.4 ± 2.3. The Number of defecations ([5]; 1.0 mg/kg i.p.) was 0.5 ± 0.5, the “Peripheral activity (crossings)” value ([5]; 1.0 mg/kg i.p.) was 86.6 ± 4.3 and the Total activity ([5]; 1.0 mg/kg i.p.) was 123.5 ± 8.4. The “Vertical activity (rearings)” value ([5]; 1.0 mg/kg i.p.) was 16.5 ± 1.8, the “Central activity (crossings)” value ([5]; 10.0 mg/kg i.p.) was 36.0 ± 4.9 and the Number of defecations ([5]; 10.0 mg/kg i.p.) was 0.6 ± 0.6. The “Peripheral activity (crossings)” value ([5]; 10.0 mg/kg i.p.) was 86.6 ± 10.9, the Total activity ([5]; 10.0 mg/kg i.p.) was 140.2 ± 19.0 and the “Vertical activity (rearings)” value ([5]; 10.0 mg/kg i.p.) was 17.6 ± 3.2. The “Central activity (crossings)” value ([5]; 20.0 mg/kg i.p.) was 23.4 ± 4.9, the Number of defecations ([5]; 20.0 mg/kg i.p.) was 1.8 ± 0.6 and the “Peripheral activity (crossings)” value ([5]; 20.0 mg/kg i.p.) was 86.4 ± 4.0. The Total activity ([5]; 20.0 mg/kg i.p.) was 127.2 ± 11.6, the “Vertical activity (rearings)” value ([5]; 20.0 mg/kg i.p.) was 17.4 ± 2.7 and the “Central activity (crossings)” value ([5]; 30.0 mg/kg i.p.) was 26.3 ± 10.2. For the same compound, the Number of defecations ([5]; 30.0 mg/kg i.p.) was 0.1 ± 0.1, the “Peripheral activity (crossings)” value ([5]; 30.0 mg/kg i.p.) was 53.0 ± 5.7 and the Total activity ([5]; 30.0 mg/kg i.p.) was 87.9 ± 17.5. The “Vertical activity (rearings)” value ([5]; 30.0 mg/kg i.p.) was 8.3 ± 4.6, the “Central activity (crossings)” value ([5]; 50.0 mg/kg i.p.) was 13.9 ± 5.3 and the Number of defecations ([5]; 50.0 mg/kg i.p.) was 0.5 ± 0.3. The “Peripheral activity (crossings)” value ([5]; 50.0 mg/kg i.p.) was 67.1 ± 11.9, the Total activity ([5]; 50.0 mg/kg i.p.) was 90.1 ± 19.8 and the “Vertical activity (rearings)” value ([5]; 50.0 mg/kg i.p.) was 9.1 ± 2.6. The “effect on locomotor activity of C57B1/6 mice in open-field test, in words” value ([5]; i.p., doses that activate Balb/c mice) was “without any changes in locomotor activity”, the “Central activity (crossings)” value ([6]; 0.001 mg/kg i.p.) was 1.6 ± 1.6 and the “Peripheral activity (crossings)” value ([6]; 0.001 mg/kg i.p.) was 28.9 ± 8.8. For the same compound, the Total activity ([6]; 0.001 mg/kg i.p.) was 30.3 ± 9.4, the “Central activity (crossings)” value ([6]; 0.01 mg/kg i.p.) was 2.6 ± 1.4 and the Number of defecations ([6]; 0.01 mg/kg i.p.) was 3.1 ± 0.6. For the same compound, the “Peripheral activity (crossings)” value ([6]; 0.01 mg/kg i.p.) was 79.8 ± 9.3, the Total activity ([6]; 0.01 mg/kg i.p.) was 83.2 ± 11.3 and the “Vertical activity (rearings)” value ([6]; 0.01 mg/kg i.p.) was 0.9 ± 0.6. For the same compound, the Number of defecations ([6]; 0.05 mg/kg i.p.) was 2.0 ± 0.8, the “Peripheral activity (crossings)” value ([6]; 0.05 mg/kg i.p.) was 37.1 ± 6.7 and the Total activity ([6]; 0.05 mg/kg i.p.) was 37.1 ± 6.7. For the same compound, the Number of defecations ([6]; 0.1 mg/kg i.p.) was 2.4 ± 0.7, the “Peripheral activity (crossings)” value ([6]; 0.1 mg/kg i.p.) was 70.6 ± 10.6 and the Total activity ([6]; 0.1 mg/kg i.p.) was 73.7 ± 12.7. For the same compound, the “Central activity (crossings)” value ([6]; 0.5 mg/kg i.p.) was 2.9 ± 1.5, the Number of defecations ([6]; 0.5 mg/kg i.p.) was 1.6 ± 0.8 and the “Peripheral activity (crossings)” value ([6]; 0.5 mg/kg i.p.) was 77.6 ± 14.2. For the same compound, the Total activity ([6]; 0.5 mg/kg i.p.) was 80.5 ± 15.7, the “Central activity (crossings)” value ([6]; 1.0 mg/kg i.p.) was 0.5 ± 0.3 and the Number of defecations ([6]; 1.0 mg/kg i.p.) was 2.8 ± 0.9. The “Peripheral activity (crossings)” value ([6]; 1.0 mg/kg i.p.) was 66.3 ± 11.1, the Total activity ([6]; 1.0 mg/kg i.p.) was 66.8 ± 11.4 and the “Central activity (crossings)” value ([6]; 5.0 mg/kg i.p.) was 2.3 ± 1.5. The Number of defecations ([6]; 5.0 mg/kg i.p.) was 0.8 ± 0.5, the “Peripheral activity (crossings)” value ([6]; 5.0 mg/kg i.p.) was 43.0 ± 4.4 and the Total activity ([6]; 5.0 mg/kg i.p.) was 45.3 ± 5.9. The “Central activity (crossings)” value ([6]; 10.0 mg/kg i.p.) was 0.9 ± 0.3, the Number of defecations ([6]; 10.0 mg/kg i.p.) was 2.0 ± 0.7 and the “Peripheral activity (crossings)” value ([6]; 10.0 mg/kg i.p.) was 54.8 ± 8.3. For the same compound, the Total activity ([6]; 10.0 mg/kg i.p.) was 55.7 ± 8.6, the “Central activity (crossings)” value ([6]; 30.0 mg/kg i.p.) was 1.1 ± 0.7 and the Number of defecations ([6]; 30.0 mg/kg i.p.) was 4.5 ± 1.4. The “Peripheral activity (crossings)” value ([6]; 30.0 mg/kg i.p.) was 50.5 ± 7.9, the Total activity ([6]; 30.0 mg/kg i.p.) was 51.7 ± 8.7 and the “Vertical activity (rearings)” value ([6]; 30.0 mg/kg i.p.) was 0.1 ± 0.1. The Number of defecations ([6]; 50.0 mg/kg i.p.) was 1.6 ± 0.5, the “Peripheral activity (crossings)” value ([6]; 50.0 mg/kg i.p.) was 11.0 ± 1.6 and the Total activity ([6]; 50.0 mg/kg i.p.) was 11.0 ± 1.6. For the same compound, the “effect on the behavior (locomotor activity) of Balb/c mice in open-field test, in words” value ([6]; i.p., screening) was “able to activate the behavior of Balb/c mice”.
